Laboratory results reported in patent US20130143886A1, “METHODS FOR PRESERVING AND/OR INCREASING RENAL FUNCTION USING XANTHINE OXIDOREDUCTASE INHIBITORS” (priority 2006, published 2013).
Where “and” joins values, the source holds several entries; their conditions need not be identical. Equal values may be shown once. Marks after values point to notes of the source that are not given here.

Legend:
[1] = test system: human subjects with a history of nephrolithiasis; assay: Renal function measures and serum urate in 4-week double-blind phase 2 study and open-label long-term febuxostat study; assay type: in vivo; conditions: for Measured Creatinine Clearance / Serum Creatinine / Urine Uric Acid / Estimated GFR / Serum Urate: individual subjects
Method: (1) febuxostat 40 mg per day, (2) febuxostat 80 mg per day, (3) febuxostat 120 mg per day, or (4) placebo. Subjects completing the double-blind study entered an open-label, long-term study and began treatment with 80 mg febuxostat per day. Febuxostat doses could be titrated over the initial 6 months to 40 mg or 120 mg febuxostat per day based on the subjects' serum urate levels and the occurrence of adverse events. In the study subset, a post-hoc analysis of nephrolithiasis outcome in the study subjects (n=13) who had received febuxostat for ≧30 months. In the event of an occurrence of renal calculus formation, all such stones were analyzed for mineral content. The following were the criteria for inclusion in the study: (1) a history or presence of gout as defined by the American Rheumatism Association Preliminary criteria; […] (3) serum urate level of ≧8.0 mg/dL at the start of the double-blind study. The following were the criteria for exclusion from the study: […]

[2] = test system: human subjects with a history of nephrolithiasis; assay: Adverse events and discontinuations in the double-blind and open-label febuxostat study; assay type: in vivo
Method: (1) febuxostat 40 mg per day, (2) febuxostat 80 mg per day, (3) febuxostat 120 mg per day, or (4) placebo. Subjects completing the double-blind study entered an open-label, long-term study and began treatment with 80 mg febuxostat per day. Febuxostat doses could be titrated over the initial 6 months to 40 mg or 120 mg febuxostat per day based on the subjects' serum urate levels and the occurrence of adverse events.

[3] = test system: Mice of the species/strain B6C3F1; assay: Histopathological examination of the kidney after 13 weeks of oral gavage dosing; assay type: in vivo; conditions: for Vacuolar Degeneration of Renal Proximal Tubules (number of animals): 12 animals examined, 13 weeks
Method: Mice of the species/strain B6C3F1 of an initial age of 6 weeks were dosed via oral gavage with febuxostat suspended in 0.5% methyl cellulose. The daily dose administered was either 0 mg (i.e., the control group), 3 mg, 12 mg, 24 mg, or 48 mg. Histopathological examination of the kidney was carried out after 13-weeks of dosing for vacuolar degeneration of renal proximal tubules (a known naturally occurring change in rodents).

remnant kidney (RK) rats = assay: Tubulointerstitial fibrosis quantification; assay type: in vivo, Male Wistar rats; conditions: febuxostat in both RK and RK+OA rats
Method: Male Wistar rats (295-340 g) were used to produce rats with remnant kidney (RK) as follows. […] Rats were then assigned to one of four treatment groups: Group 1, RK control rats (n=7); Group 2, RK+febuxostat (Fx) rats (n=8); Group 3, RK+oxonic acid (OA) rats (n=6); and Group 4, RK+OA+Fx (n=10). Oxonic acid (OA) (Sigma-Aldrich, St Louis Mo., USA), administered at 750 mg/kg body weight daily by oral gavage, was given starting the day after the ⅚ nephrectomy. […] Arteriolar morphology was assessed by indirect peroxidase immunostaining for alpha-smooth muscle actin (DAKO Corp, Carpinteria, Calif., USA). […] The degree of tubulointerstitial fibrosis was quantified in 10 non-crossed fields of cortex (100×) per biopsy. Slides were analyzed by light microscopy (Olympus BX51; Olympus American, Melville, N.Y., USA) and captured by a digital video camera (CoolSnap Pro; Media Cybernetics, Silver Spring, Md., USA). Pictures were processed on a computer and analyzed using Image Pro-Plus (version 5.0; Media Cybernetics, Silver Spring, Md., USA). Taking advantage of the capabilities of color recognition with this software, positive blue-stained areas (fibrosis) were selected and quantified in pixel units; glomeruli and vessels were previously excluded from the field. For each biopsy, the mean amount of positive blue-stained area was calculated by averaging the values from ten examined fields.

[4] = test system: hyperuricemic gout patients; assay: FOCUS long-term open-label study: safety
[5] = double-blind Wk 4, DB dose 40 mg/day
[6] = double-blind Wk 4, DB dose 80 mg/day
[7] = double-blind Wk 4, DB dose 120 mg/day
[8] = open-label Yr 1, OL dose 80 mg/day
[9] = open-label Yr 1, OL dose 120 mg/day
[10] = open-label Yr 2, OL dose 80 mg/day
[11] = open-label Yr 2, OL dose 120 mg/day
[12] = open-label Yr 3, OL dose 80 mg/day
[13] = open-label Yr 3, OL dose 120 mg/day
[14] = number of subjects, N = 18, open-label study
[15] = adverse events, N = 116, PY = 385.6
[16] = serious adverse events, N = 116, PY = 385.6

Structure (SMILES): Cc1nc(-c2ccc(OCC(C)C)c(C#N)c2)sc1C(=O)O [febuxostat, 2-[3-cyano-4-(2-methylpropoxy)phenyl]-4-methylthiazole-5-carboxylic acid]
- Measured Creatinine Clearance [1, 5]: 82 mL/min and 56 mL/min
- Serum Creatinine [1, 5]: 1.2 mg/dL and 1.3 mg/dL
- Urine Uric Acid [1, 5]: 504 mg/day and 202 mg/day
- Measured Creatinine Clearance [1, 6]: 103 mL/min and 147 mL/min and 93 mL/min and 88 mL/min and 63 mL/min and 64 mL/min and 94 mL/min
- Serum Creatinine [1, 6]: 1.1 mg/dL (3×) and 1.2 mg/dL (3×) and 1.5 mg/dL
- Urine Uric Acid [1, 6]: 387 mg/day and 504 mg/day and 319 mg/day and 286 mg/day and 235 mg/day and 185 mg/day and 403 mg/day
- Measured Creatinine Clearance [1, 7]: 38 mL/min
- Serum Creatinine [1, 7]: 1.4 mg/dL
- Urine Uric Acid [1, 7]: 17 mg/day
- Estimated GFR [1, 8]: 80 mL/min and 73 mL/min (2×) and 67 mL/min and 68 mL/min (2×) and 57 mL/min and 61 mL/min and 54 mL/min and 33 mL/min and 49 mL/min
- Serum Creatinine [1, 8]: 1.1 mg/dL (2×) and 1.2 mg/dL (4×) and 1.4 mg/dL (2×) and 1.3 mg/dL and 1.6 mg/dL and 1.5 mg/dL
- Serum Urate [1, 8]: 4.3 mg/dL and 5.9 mg/dL and 4.4 mg/dL (2×) and 6.1 mg/dL and 4.5 mg/dL and 6.4 mg/dL and 4.1 mg/dL and 3.6 mg/dL and 7.4 mg/dL and 4.6 mg/dL
- Estimated GFR [1, 9]: 63 mL/min and 84 mL/min
- Serum Creatinine [1, 9]: 1.2 mg/dL and 1.0 mg/dL
- Serum Urate [1, 9]: 3.1 mg/dL and 4.6 mg/dL
- Estimated GFR [1, 10]: 72 mL/min and 80 mL/min and 74 mL/min and 61 mL/min and 62 mL/min and 56 mL/min and 59 mL/min and 39 mL/min and 49 mL/min and 73 mL/min and 75 mL/min
- Serum Creatinine [1, 10]: 1.2 mg/dL and 1.1 mg/dL (4×) and 1.3 mg/dL (3×) and 1.4 mg/dL (2×) and 1.5 mg/dL
- Serum Urate [1, 10]: 4.1 mg/dL and 4.2 mg/dL and 4.8 mg/dL and 7.6 mg/dL and 6.4 mg/dL and 9.7 mg/dL and 5.4 mg/dL and 4.7 mg/dL and 6.0 mg/dL and 4.4 mg/dL and 5.7 mg/dL
- Estimated GFR [1, 11]: 58 mL/min and 75 mL/min
- Serum Creatinine [1, 11]: 1.3 mg/dL and 1.1 mg/dL
- Serum Urate [1, 11]: 3.0 mg/dL and 4.2 mg/dL
- Estimated GFR [1, 12]: 72 mL/min (2×) and 66 mL/min and 61 mL/min and 57 mL/min and 51 mL/min and 54 mL/min and 39 mL/min and 40 mL/min and 65 mL/min and 67 mL/min
- Serum Creatinine [1, 12]: 1.2 mg/dL (5×) and 1.3 mg/dL and 1.4 mg/dL (3×) and 1.5 mg/dL and 1.8 mg/dL
- Serum Urate [1, 12]: 5.8 mg/dL (2×) and 3.2 mg/dL and 3.9 mg/dL and 3.3 mg/dL and 7.5 mg/dL and 4.6 mg/dL and 3.8 mg/dL (2×) and 6.8 mg/dL and 5.2 mg/dL
- Estimated GFR [1, 13]: 57 mL/min and 52 mL/min
- Serum Creatinine [1, 13]: 1.3 mg/dL and 1.5 mg/dL
- Serum Urate [1, 13]: 3.3 mg/dL and 3.8 mg/dL
- Renal function throughout the study ([1]; subjects receiving febuxostat): maintained at generally stable levels
- Diarrhea (excluding infectious) [2, 14]: 7
- Edema NEC [2, 14]: 3
- Gastrointestinal and Abdominal Pains (excluding oral and throat) [2, 14]: 3
- Joint Related Signs and Symptoms [2, 14]: 6
- Lower Respiratory Tract and Lung Infections [2, 14]: 5
- Musculoskeletal and Connective Tissue Signs and Symptoms NEC [2, 14]: 5
- Non-Site Specific Injuries [2, 14]: 4
- Rashes, Eruptions and Exanthems NEC [2, 14]: 3
- Total Subjects with ≧1 AE [2, 14]: 17
- Upper Respiratory Infections [2, 14]: 12
- Urinary Tract Infections [2, 14]: 3
- Serum creatinine at Withdrawal (adverse event Increased Creatinine) ([2]; one subject, open-label, Baseline: 1.6 mg/dL): 2.1 mg/dL
- Serum creatinine at Follow-up (adverse event Increased Creatinine) ([2]; one subject, Follow-up Day 163, two weeks off study medication): 1.9 mg/dL
- Vacuolar Degeneration of Renal Proximal Tubules (number of animals) ([3]; Daily Dose 3, Female): 1
- Vacuolar Degeneration of Renal Proximal Tubules (number of animals) ([3]; Daily Dose 3, Male): 7*
- Vacuolar Degeneration of Renal Proximal Tubules (number of animals) ([3]; Daily Dose 12, Female): 1
- Vacuolar Degeneration of Renal Proximal Tubules (number of animals) ([3]; Daily Dose 12, Male): 5**
- Vacuolar Degeneration of Renal Proximal Tubules (number of animals) ([3]; Daily Dose 24, Female): 0
- Vacuolar Degeneration of Renal Proximal Tubules (number of animals) ([3]; Daily Dose 24, Male): 2**
- Vacuolar Degeneration of Renal Proximal Tubules (number of animals) ([3]; Daily Dose 48, Female): 2
- Vacuolar Degeneration of Renal Proximal Tubules (number of animals) ([3]; Daily Dose 48, Male): 1**
- Vacuolar degeneration of the renal proximal tubules (in words) ([3]; male animals): reduced the amount of vacuolar degeneration of the renal proximal tubules in a statistically significant fashion
- Tubulointerstitial (TI) fibrosis (in words) (remnant kidney (RK) rats): significantly decreased
- Subjects reporting serious adverse events (SAEs) ([4]; 21/116 subjects): 18%
- Athralgia, rate [4, 15]: 13.0 per 100 PY
- Diarrhea, rate [4, 15]: 7.8 per 100 PY
- Headaches, rate [4, 15]: 20.5 per 100 PY
- Influenza viral infections, rate [4, 15]: 7.3 per 100 PY
- Limb injuries, rate [4, 15]: 5.4 per 100 PY
- Liver function analyses, rate [4, 15]: 6.3 per 100 PY
- Lower respiratory tract infections, rate [4, 15]: 8.8 per 100 PY
- Musculoskeletal pain, rate [4, 15]: 23.6 per 100 PY
- Paresthesias and dysesthesias, rate [4, 15]: 6.2 per 100 PY
- Upper respiratory tract infections, rate [4, 15]: 37.8 per 100 PY
- Deaths during the study ([4]; in vivo): No subjects died
- Cardiac disorders, rate [4, 16]: 1.6 per 100 PY
- Gastrointestinal disorders, rate [4, 16]: 0.8 per 100 PY
- General disorders and administration site conditions, rate [4, 16]: 0.3 per 100 PY
- Hepatobiliary disorders, rate [4, 16]: 0.5 per 100 PY
- Infections and infestations, rate [4, 16]: 1.3 per 100 PY
- Injury, poisoning and procedural complications, rate [4, 16]: 1.0 per 100 PY
- Musculoskeletal and connective tissue disorders, rate [4, 16]: 1.6 per 100 PY
- Neoplasms - bening, malignant and unspecified, rate [4, 16]: 1.0 per 100 PY
- Nervous system disorders, rate [4, 16]: 0.5 per 100 PY
- Psychiatric disorders, rate [4, 16]: 0.3 per 100 PY
- Renal and urinary disorders, rate [4, 16]: 0.3 per 100 PY
- Subjects reporting at least one AE during the study ([4]; subjects of 116 (Ninety-one percent)): 106/116
- Reported rates of adverse events across renal function (in words) ([4]; throughout the range of renal function encountered): no quantitative difference
